In paper PMC6196658, “Activity of Thioallyl Compounds From Garlic Against Giardia duodenalis Trophozoites and in Experimental Giardiasis” (Frontiers in Cellular and Infection Microbiology, 2018):
Values after ≈ are worked out from the molar mass of the structure shown. Values joined by “and” are separate entries in the source; they are usually repeats but may differ in a detail not shown here. Equal values may be shown once.

Experiments:
[1] = tested on: G. duodenalis trophozoites; experiment: In vitro susceptibility, subculture in liquid medium (SCLM); type: cell-based, Giardia duodenalis (WB strain); details: SCLM; for IC50: Giardia duodenalis
[2] = tested on: G. duodenalis trophozoites; experiment: In vitro susceptibility, MTT reduction; type: cell-based, Giardia duodenalis (WB strain)
[3] = tested on: G. duodenalis trophozoites; experiment: In vitro susceptibility, trypan blue exclusion (TBE); type: cell-based, Giardia duodenalis (WB strain); details: 24 h exposure
Protocol: G. duodenalis trophozoites from the WB strain (ATCC # 30957) were axenically cultured in modified Diamond's TYI-S-33 medium (Keister, [1983]) without bile at 37°C. Cell harvests were carried out by chilling flasks at the log phase of growth reached after 72–96 h routine subcultures. Detached trophozoites were either directly counted in a haemocytometer or washed 3 times with phosphate buffer saline (PBS) prior to counting and the cell number was adjusted as required in the assays.
When complete TYI-S-33 medium (final cysteine concentration = 12.4 mM) was used, it was no older than 10 days to avoid cysteine oxidation. […] Parasites were harvested and counted and trophozoite's viability was determined by physiological methods to determine the growth capacity of trophozoites after drug exposure (subculture in liquid medium SCLM)] or trophozoite and membrane integrity [direct cell count (DCC) and trypan blue exclusion (TBE), respectively]. […] All these protocols have been described elsewhere (Argüello-García et al., [2004]) except that DCC values were calculated from total cell numbers of compound-exposed trophozoites divided by the initial trophozoites' inoculum (1 × 10^6) and TBE was performed by incubating PBS-washed parasites in a trypan blue solution (0.4% [w/v] final concentration) for 5 min at room temperature followed by microscopic count of “stained” (non-viable) parasites. […]

[4] = tested on: G. duodenalis trophozoites; experiment: ROS formation, H2DCFDA flow cytometry; type: cell-based, Giardia duodenalis; details: 1.2 mM (twice MLC), 24 h
Protocol: The identification and quantitative determinations of trophozoites were carried out as follows: (a) apoptosis or necrosis were determined using anti-annexin V-fluorescein isothiocyanate (FITC) antibodies or PI as respective markers, (b) oxidative stress was determined by formation of reactive oxygen species (ROS) with the fluorescent ROS-complexing agent 5-(and 6)-carboxy 2′7′-dichlorodihydrofluorescein diacetate (H2DCFDA), and (c) determination of trophozoites cell cycle stages (G1, S, G2, and G2/M) after exposure to ALC or to a control drug (albendazole, ABZ) was carried out as previously described (Martínez-Espinosa et al., [2015]). In all these assays 20,000 cells per sample were recorded.

[5] = tested on: G. duodenalis trophozoites; experiment: Electron microscopy of exposed trophozoites; type: cell-based, Giardia duodenalis
Protocol: Trophozoites were exposed to TACs in two ways: under long (24 h, standard toxicity) and short (3 h, acute toxicity) incubations at 37°C using concentrations corresponding to the experimental MLC (as determined at 24 h) and twofold the MLC, respectively. For scanning electron microscopy, PBS-washed parasites were fixed with 2.5% glutaraldehyde in 0.1 M sodium cacodylate buffer, pH 7.2, dehydrated under increasing concentrations of ethanol, critical-point dried using a Samdri apparatus, gold coated in an ion sputtering device (JEOL-JFC-1100), and examined with a JEOL 35-C scanning electron microscope. In transmission electron microscopy (TEM) studies, washed cells were fixed with 2.5% glutaraldehyde and post-fixed with 1% osmium tetroxide in cacodylate buffer. Following sequential dehydration in ethanol, samples were embedded with epoxy resins.

[6] = tested on: Eimeria tenella; design: method as in Alnassan et al., 2015; details: ref Alnassan et al., 2015; cited from earlier work
[7] = rat, no reference given; cited from earlier work
[8] = Tolerability and lethality in gerbils

SMILES: C=CCS[S+]([O-])CC=C (stereo not shown) [ALC, diallyl thiosulfinate]
- IC50 ([1]; 24 h exposure (Figure 6B), read-out: IC50 ± SD): 0.322 ± 0.023 mM
- IC50 ([1]; 24 h exposure, read-out: IC50 (mM) ±SD): 0.32 ± 0.02 mM
- MLC (mM) ±SD ([1]; 24 h exposure): 0.6 mM (≈ 97.4 µg/mL)
- concentration at which parasite replication was suppressed ([1]; 24 h exposure): 600 µM
- MLC (mM) ±SD ([1]; 24 h exposure, listed as Allicin): 0.600 ± 0.016 mM (≈ 97.4 µg/mL)
- IC50 ([2]; Giardia duodenalis, MTT assay, value as quoted in Discussion): 686 µM
- MLC (mM) ±SD ([2]; MTT, 24 h exposure): 1.490 ± 0.025 mM (≈ 242 µg/mL)
- MLC (mM) ±SD [3]: 1.12 mM and 1.127 ± 0.05 mM
- IC50 ([3]; Giardia duodenalis): 405 ± 38 µM
- cells positive for ROS (total) [4]: 0.75%
- surface damage by scanning electron microscopy ([5]; 600 μM, 24 h (standard toxicity)): membrane blebbing process with profuse holes
- intracellular damage by transmission electron microscopy ([5]; standard (600 μM 24 h) or acute (1.2 mM 3 h) protocol): complete loss of electron density of the intracellular elements and the integrity of plasma membrane
- IC99 [6]: 11.1 mM
- oral lethality [7]: 980 mg/kg
- irritation in intestinal epithelium ([8]; 276 mg/kg single dose, treated non-infected animals, surgical examination): noticeable irritation in intestinal epithelium
- lethal dose ([8]; intragastric route, gerbils): > 400 mg/kg
